In assay [1] the test system is Escherichia coli ATCC 25922. Kind of assay: Luminescence of culture samples of carbapenem resistant and sensitive bacteria after addition of compound VIIa. Format: cell-based. The following applies: E.c.; for RLU max. (with 10 μM VI): 6 h culture, 30 min recording. As for the experimental part: (§1) Carbapenem resistant bacterial strains Pseudomonas aeruginosa RKI 48/09 (IMP-2) (P.a.-Imp^R) and Klebsiella pneumoniae RKI 92/08 (KPC-2) (K.p.-Imp^R) were cultivated on trypticase soy agar supplemented with 8 mg/L and […] imipenem, respectively. Carbapenem sensitive strain Escherichia coli ATCC 25922 (E.c.) was cultivated on trypticase soy agar. Nutrient broth (for composition and pH see previous examples, 3 mL in 15 mL tubes) with and without imipenem was inoculated with imipenem resistant and sensitive bacteria from agar plates. Tube cultures were incubated for 6 h at 37° C. and 150 rpm. Culture samples (0.255 mL) were transferred to wells of a white microtiter plate and mixed with 45 μL stock solution of compound Vila in ethanol. Final concentrations of compound Vila, ethanol and dimethyl sulfoxide were 10 μM, […] and 1% v/v, respectively. Luminescence was recorded after addition of […] for 30 min with a plate reader.

In assay [2] the test system is Pseudomonas aeruginosa RKI 48/09 (IMP-2). Format: cell-based. The following applies: P.a.-Imp^R; for RLU max. (with 10 μM VI): 6 h culture, 30 min recording. As for the experimental part:
as §1

The test system of assay [3] is Klebsiella pneumoniae RKI 92/08 (KPC-2). Format: cell-based. The following applies: K.p.-Imp^R; for RLU max. (with 10 μM VI): 6 h culture, 30 min recording. The protocol:
as §1

The test system of assay [4] is Escherichia coli ATCC 25922. The following applies: E.c.; for Signal to noise ratio (to sterile): MH1:20; for RLU, 6 h MH1:20: first two minutes of measurement. The protocol: (§2) Escherichia coli ATCC 25922 (E.c., beta-galactosidase positive) and Salmonella Enteritidis RKI 05/07992 (S.E., beta-galactosidase negative) were cultivated in Nutrient Broth for 17 h and then serially diluted in sterile saline (0.9% NaCl). Diluted cell suspensions were inoculated 1:100 v/v in test tubes with either full-strength LB medium (10 g/L tryptone, 5 g/L yeast extract, 5 g/L NaCl) or LB medium diluted 1:20 v/v with ultrapure water (LB1:20). All media contained 1 mM IPTG for induction of beta-galactosidase. Sterile saline was added to negative control tubes. After 6 h of cultivation at 37° C. and 150 rpm, samples (0.255 mL) were withdrawn from cultures and mixed with 45 μL stock solution of compound Va in ethanol in a white microtiter plate. […] For comparison, the same E. coli strain was pre-cultured and diluted in a similar way and then inoculated in diluted Mueller-Hinton broth (MH1:20, full-strength medium diluted 1:20 v/v with 20 mM phosphate buffer pH 7.2). The medium was supplemented with 1 mM IPTG. After 6 h of cultivation at 37° C. and 150 rpm, culture samples (45 μL) were transferred to a microtiter plate and mixed with 5 μL of 10x lysis reagent which contained 2% w/v dodecyl-trimethylammonium bromide, 1 mM D-Luciferin-6-O-beta-D-galactopyranoside (commercially available, Biosynth Cat. No. L-8600) and 10 mM magnesium chloride. Lysis and reaction with D-Luciferin-6-O-beta-D-galactopyranoside was carried out for 1 h at 37° C. Then 0.2 mL of luciferase assay mix was added (5:1 v/v). The assay mix contained 62.5 mM Tris acetate (pH 7.8), 12.5 mM magnesium sulfate, 2.5 g/L bovine serum albumin, 7.5 mM D/L-cysteine, 1.25 mM ethylene diamine tetraacetate, 25 μM sodium pyrophosphate, 10 g/L cyclodextrin, 1.25 mM adenosine 5-triphosphate and 13.1 μg/mL commercially available Photinus pyralis luciferase (recombinant). Light emission was recorded with a SpectraMax M5 plate reader.

The test system of assay [5] is Escherichia coli ATCC 25922. Kind of assay: Luminescence of culture samples after addition of Compound Va with 15% v/v ethanol. In kind it is cell-based. The conditions noted are these: for Signal to noise ratio, LB1:20 (to sterile) / RLU, 6 h LB / RLU, 6 h LB1:20: E.c.; for RLU, 6 h LB / RLU, 6 h LB1:20: 20 μM, 15% v/v ethanol, 9-10 min after addition. The protocol: as §2

The subject of assay [6] is Salmonella Enteritidis RKI 05/07992. The description is as above. Format: cell-based. The following applies: S.E., inoculation density 10^6 CFU/mL. As for the experimental part:
as §2

The test system is the same in assay [7]. Kind of assay: Luminescence of cultures containing D-luciferin-6-O-phenyl-caprylate after mixing with luciferase assay mix. Format: cell-based, Salmonella enterica ssp. enterica ser. Enteritidis. The conditions noted are these: S.E.; for RLU, 6 h: 0.1 mM in Nutrient Broth, first 3 min after luciferase assay mix. The protocol:
D-luciferin-6-O-phenyl-caprylate was synthesized according to procedures known to persons skilled in the art. Salmonella Enteritidis RKI 05/07992 (S.E., Salmonella enterica ssp. enterica ser. Enteritidis, C8 esterase positive) was cultivated in Nutrient Broth (5 g/L peptone, 5 g/L NaCl, 2 g/L […], 1 g/L […], pH 7.4) for 16 h and then serially diluted in sterile saline (0.9% NaCl). Diluted cell suspensions were inoculated 1:100 v/v in test tubes with Nutrient Broth containing 0.1 mM D-luciferin-6-O-phenyl-caprylate. […] Light emission was recorded with a plate reader equipped with a luminescence detection system. Mean RLU (relative light unit) values of first 3 min after addition of luciferase assay mix were compared (Table VII).

The mark [8] stands for this setting: imipenem 4 mg/L in nutrient broth.
[9] abbreviates: inoculation density 10^2 CFU/mL.
The mark [10] stands for this setting: inoculation density 10^4 CFU/mL.
Where [11] appears, read: inoculation density 10^6 CFU/mL.
[12] abbreviates: inoculation density 10^3 CFU/mL.
The mark [13] stands for this setting: inoculation density 10^5 CFU/mL.
Where [14] appears, read: 20 μM, 15% v/v ethanol, 9-10 min after addition.

Read-outs that look alike come from different tables or passages of the source.

`C[C@@H](O)[C@H]1C(=O)N2C(C(=O)O)=C(SCCN=CN)C[C@H]12` [Imipenem, imipenem, reference compound]: the “OD600 6 h” value in assay [1] (setting [8]) is 0.01; in assay [2] (imipenem 8 mg/L in nutrient broth), 0.48; in assay [3] (setting [8]), 0.50.
Turning to “D-Luciferin-6-O-beta-D-galactopyranoside”, the results for the “Signal to noise ratio (to sterile)” value in assay [4] (setting [9]), in assay [4] (setting [10]) and in assay [4] (setting [11]) were 1.5, 377 and 544, respectively. Also, the “RLU, 6 h MH1:20” value stood at 13367 RLU in assay [4] (setting [9]), 3306967 RLU in assay [4] (setting [10]) and 4777613 RLU in assay [4] (setting [11]).
Consider `COC(=O)/C=C/c1ccc(C2(OC)OOC23C2CC4CC(C2)CC3C4)c(Cl)c1OCc1ccc(OC2OC(CO)C(O)C(O)C2O)cc1` (centres unmarked) [Compound Va], for which the “Signal to noise ratio, LB1:20 (to sterile)” value in assay [5] (setting [9]) is 14; in assay [5] (setting [12]), 79; in assay [5] (setting [10]), 1085; in assay [5] (setting [13]) it was 1698; in assay [5] (setting [11]), 871; in assay [6] it was 1. Besides, the “RLU, 6 h LB” value in assay [5] (setting [9]) turned out to be 551 RLU; in assay [5] (setting [12]) it was 3317 RLU; in assay [5] (setting [10]), 49434 RLU; in assay [5] (setting [13]), 43412 RLU; in assay [5] (setting [11]), 18830 RLU; in assay [6] (setting [14]), 66 RLU. The “RLU, 6 h LB1:20” value in assay [5] (setting [9]) worked out at 1369 RLU; in assay [5] (setting [12]) it was 7690 RLU; in assay [5] (setting [10]), 105252 RLU; in assay [5] (setting [13]), 164721 RLU; in assay [5] (setting [11]), 84511 RLU; in assay [6] (setting [14]), 125 RLU. Besides, the “signal to noise ratio higher than with D-Luciferin-6-O-beta-D-galactopyranoside” value in assay [5] (lowest tested inoculation density of E. coli, 5-fold lower working concentration) stood at 9 fold.
`COC(=O)/C=C/c1ccc(C2(OC)OOC23C2CC4CC(C2)CC3C4)c(Cl)c1OCc1ccc(C2=C(C(=O)O)N3C(=O)[C@H]([C@@H](C)O)[C@H]3[C@H]2C)cc1` (stereo partly drawn) [VIIa, (4S,5R,6S)-3-(4-((2-Chloro-6-((E)-3-methoxy-3-oxoprop-1-en-1-yl)-3-((1r,3r,5S,7S)-4′-methoxyspiro[adamantane-2,3′-[1,2]dioxetan]-4′-yl)phenoxy)methyl)phenyl)-6-((R)-1-hydroxyethyl)-4-methyl-7-oxo-1-azabicyclo[3.2.0]hept-2-ene-2-carboxylicacid]: the “RLU max. (with 10 μM VI)” value in assay [1] (imipenem 0 mg/L) is recorded as 8181 RLU; in assay [1] (imipenem 4 mg/L) it was 7992 RLU; in assay [2] (imipenem 0 mg/L), 19940 RLU; in assay [2] (imipenem 8 mg/L) it was 21028 RLU; in assay [3] (imipenem 0 mg/L), 72951 RLU; in assay [3] (imipenem 4 mg/L), 72272 RLU. For the same compound, the “Signal to noise ratio (to E.c.)” value in assay [2] (imipenem 0 mg/L) was 2.4; in assay [2] (imipenem 8 mg/L), 2.6; in assay [3] (imipenem 0 mg/L), 8.9; in assay [3] (imipenem 4 mg/L) it was 8.8.
Regarding `CCCCCCCC(=O)Oc1ccc(COc2ccc3nc(C4=N[C@@H](C(=O)O)CS4)sc3c2)cc1` [D-luciferin-6-O-phenyl-caprylate], the “Signal to noise ratio (to sterile)” value in assay [7] (setting [9]) amounted to 1.1; in assay [7] (setting [10]), 1.6; in assay [7] (setting [11]), 24. The “RLU, 6 h” value amounted to 18354 RLU in assay [7] (setting [9]), 27783 RLU in assay [7] (setting [10]) and 417195 RLU in assay [7] (setting [11]).

Values taken from patent US11649475B2, “Dioxetane compounds and their use for the detection of microorganisms” (NEMIS Technologies AG, priority 2018, dated 2023).
